Test results from patent publication US20150064286A1, “PREPARATION AND COMPOSITIONS OF HIGHLY BIOAVAILABLE ZEROVALENT SULFUR AND USES THEREOF” (EMORY UNIVERSITY, priority 2011, published 2015).

Columns and labels:
[1] = Percentage bioactive sulfur contained in hydrogen sulfide prodrugs; format: physicochemical; details: sulfur capable of being converted into hydrogen sulfide in vivo
cavernosal smooth muscle = details: Shukla et al., BJU Int. 2009; cited from earlier work
[2] = biological target: phosphodiesterase type 5 (PDE5) (Homo sapiens, UniProt O76074); details: Sparatore et al. 2011; cited from earlier work
[3] = system: p47^phox (a subunit of NOX); details: Shukla et al., BJU Int. 2009; cited from earlier work
NADPH oxidase (NOX) = details: Sparatore et al. 2011; cited from earlier work
superoxide formation = details: Shukla et al., BJU Int. 2009; cited from earlier work
angiogenesis = details: NaHS in the drinking water, via increasing VEGF expression, Givvimani et al. 2011; cited from earlier work
pregnant rat uterus = pregnant rat uterus in vitro, Sidhu et al. 2001; cited from earlier work
[4] = Solubility in carbon disulfide; format: physicochemical
Description: The solubility of the composition in carbon disulfide was obtained by adding 6 mL of carbon disulfide to 0.500 g of the final product and determining the weight of the residue.

SMILES | % Bioactive sulfur (w/w) [1] | further results
NC(=S)c1ccc(O)cc1 [4-hydroxythiobenzamide] | 20.9 % (w/w) | –
CCCc1nn(C)c2c(=O)[nH]c(-c3cc(S(=O)(=O)N4CCN(CC(=O)Oc5ccc(-c6cc(=S)ss6)cc5)CC4)ccc3OCC)nc12 [ACS 6] | 3.5 % (w/w) | relaxation of cavernosal smooth muscle (cavernosal smooth muscle): equipotently; effect of H2S released by ACS6 on PDE5 [2]: inhibits; inhibition of expression of p47phox [3]: more than sildenafil citrate; effect of H2S released by ACS6 on NOX expression activity (NADPH oxidase (NOX)): inhibits; inhibition of superoxide formation (superoxide formation): more than sildenafil citrate
O=C(Cc1ccccc1Nc1c(Cl)cccc1Cl)Oc1ccc(-c2cc(=S)ss2)cc1 [ACS 15] | 6.3 % (w/w) | –
O=C(CCC/C=C\C[C@@H]1[C@@H](CC[C@@H](O)CCc2ccccc2)[C@H](O)C[C@@H]1O)Oc1ccc(-c2cc(=S)ss2)cc1 [ACS 67] | 5.3 % (w/w) | –
COc1ccc2c(c1)c(CC(=O)Oc1ccc(-c3cc(=S)ss3)cc1)c(C)n2C(=O)c1ccc(Cl)cc1 [ATB 343] | 5.6 % (w/w) | –
COc1ccc2cc(C(C)C(=O)Oc3ccc(C(N)=S)cc3)ccc2c1 (stereo not drawn) [ATB 346] | 8.8 % (w/w) | –
C=CCSSCC=C [Diallyl disulfide] | 45.1 % (w/w) | –
C=CCSSSCC=C [Diallyl trisulfide] | 53.9 % (w/w) | –
c1ccc(CSSSCc2ccccc2)cc1 [Dibenzyl trisulfide] | 11.5 % (w/w) | –
C1COCCN1.COc1ccc(P(=S)(S)N2CCOCC2)cc1 (stereo not drawn) [GYY 4137] | 8.5 % (w/w) | –
[Na+].[Na+].[S-2] [Na2S] | 41 % (w/w) | –
S [NaHS, sodium hydrogen sulfide] | 57 % (w/w) | angiogenesis (angiogenesis): augmented angiogenesis; uterine spontaneous contractility (pregnant rat uterus): significant dose-dependent decreases
[S] [Pure alpha- or beta-elemental sulfur, elemental sulfur] | – | Solubility in carbon disulfide [4]: completely soluble
C[S+]([O-])CCCCN=C=S (stereo not drawn) [Sulforaphane] | 18 % (w/w) | –
